Laboratory results: ChEMBL document CHEMBL1139259, “Molecular modeling, synthesis, and activity studies of novel biaryl and fused-ring BACE1 inhibitors” (Bioorg Med Chem Lett, 2009)

Experiments:
Beta-secretase 2 = molecular target: T1, Beta-secretase 2 (Homo sapiens, UniProt Q9Y5Z0); test: Inhibition of BACE2 expressed in human 293T cells; type: cell-based
T1 sequence (Q9Y5Z0 whole entry): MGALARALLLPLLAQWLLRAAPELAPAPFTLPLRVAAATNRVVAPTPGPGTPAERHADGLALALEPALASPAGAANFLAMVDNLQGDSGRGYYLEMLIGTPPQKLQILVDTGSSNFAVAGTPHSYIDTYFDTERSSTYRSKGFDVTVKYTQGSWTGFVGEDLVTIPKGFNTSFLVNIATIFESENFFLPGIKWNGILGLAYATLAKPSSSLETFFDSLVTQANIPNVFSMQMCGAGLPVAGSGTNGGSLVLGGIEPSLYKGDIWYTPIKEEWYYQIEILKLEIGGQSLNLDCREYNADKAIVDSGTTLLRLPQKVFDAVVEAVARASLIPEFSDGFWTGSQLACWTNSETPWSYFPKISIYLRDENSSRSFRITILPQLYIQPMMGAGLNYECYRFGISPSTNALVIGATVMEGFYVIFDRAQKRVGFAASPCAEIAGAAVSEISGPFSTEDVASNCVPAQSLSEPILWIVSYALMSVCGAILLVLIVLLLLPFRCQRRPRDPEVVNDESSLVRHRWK

Beta-secretase 1 = Beta-secretase 1 (Homo sapiens, UniProt P56817)
Description: Inhibition of BACE1 expressed in human 293T cells

N2a = test: Reduction of amyloid beta40 level in mouse N2A cells expressing Swedish mutant human APP695 at 10 uM after 24 hrs by ELISA; type: functional; set-up: scale not given: the % may be the effect or the level left

Chain of Beta-secretase 1 (P56817 whole entry): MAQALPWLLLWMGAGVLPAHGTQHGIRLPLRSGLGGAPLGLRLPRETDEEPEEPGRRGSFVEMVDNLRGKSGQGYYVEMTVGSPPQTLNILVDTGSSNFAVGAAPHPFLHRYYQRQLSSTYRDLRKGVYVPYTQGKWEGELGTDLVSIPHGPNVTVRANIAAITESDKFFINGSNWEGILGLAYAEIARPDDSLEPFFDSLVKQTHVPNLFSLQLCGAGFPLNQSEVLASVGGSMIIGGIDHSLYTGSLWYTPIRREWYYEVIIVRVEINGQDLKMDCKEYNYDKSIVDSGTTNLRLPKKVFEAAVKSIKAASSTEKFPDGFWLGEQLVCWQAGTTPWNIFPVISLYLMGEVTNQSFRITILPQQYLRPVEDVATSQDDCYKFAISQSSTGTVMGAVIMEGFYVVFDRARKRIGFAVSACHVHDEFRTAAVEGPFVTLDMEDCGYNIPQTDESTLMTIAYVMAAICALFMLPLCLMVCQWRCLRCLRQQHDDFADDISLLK

IC50 (Beta-secretase 2) [nM]	IC50 (Beta-secretase 1) [nM]	Structure (SMILES)	Activity (N2a) [%]
141	1770	C[C@@H](NC(=O)c1cc(C(=O)N[C@@H](Cc2ccccc2)[C@H](O)CNC2CC2)cc(N2CCCS2(=O)=O)c1)c1ccccc1	–
> 100000	811	C[C@@H](NC(=O)c1cc(C(=O)N[C@@H](Cc2ccccc2)[C@H](O)CNC2CC2)cc(-c2ccc(Cl)cc2)c1)c1ccccc1	–
1950	262	C[C@@H](NC(=O)c1cc(C(=O)N[C@@H](Cc2ccccc2)[C@H](O)CNC2CC2)cc2c1CCCCO2)c1ccc(F)cc1	–
> 100000	1260	C[C@@H](NC(=O)c1cc(C(=O)N[C@@H](Cc2ccccc2)[C@H](O)CNC2CC2)cc(-c2cn(Cc3ccccc3)nn2)c1)c1ccccc1	–
> 100000	1120	C[C@@H](NC(=O)c1cc(C#Cc2ccccc2)cc(C(=O)N[C@@H](Cc2ccccc2)[C@H](O)CNC2CC2)c1)c1ccccc1	–
2090	740	C[C@@H](NC(=O)c1cc(C(=O)N[C@@H](Cc2ccccc2)[C@H](O)CNC2CC2)cc2c1CCCO2)c1ccc(F)cc1	–
> 100000	2230	C[C@@H](NC(=O)c1cc(C(=O)N[C@@H](Cc2ccccc2)[C@H](O)CNC2CC2)cc(-c2ccsc2)c1)c1ccccc1	–
> 100000	2510	COc1cc(C(=O)N[C@@H](Cc2ccccc2)[C@H](O)CNC2CC2)cc(C(=O)N[C@H](C)c2ccccc2)c1	–
> 100000	1580	C[C@@H](NC(=O)c1cc(O)cc(C(=O)N[C@@H](Cc2ccccc2)[C@H](O)CNC2CC2)c1)c1ccccc1	–
251	158	C[C@@H](NC(=O)c1cc(C(=O)N[C@@H](Cc2ccccc2)[C@H](O)CNC2CC2)cc(N2CCCCS2(=O)=O)c1)c1ccccc1	–
> 100000	889	C#Cc1cc(C(=O)N[C@@H](Cc2ccccc2)[C@H](O)CNC2CC2)cc(C(=O)N[C@H](C)c2ccccc2)c1	–

Structure (SMILES)	IC50 (Beta-secretase 2) [nM]	IC50 (Beta-secretase 1) [nM]	Activity (N2a) [%]
Cc1cc2c(C(=O)N[C@@H](Cc3ccccc3)[C@H](O)CNC3CC3)cc(C(=O)N[C@H](C)c3ccccc3)cc2o1	> 100000	998	–
C[C@@H](NC(=O)c1cc2c(c(C(=O)N[C@@H](Cc3ccccc3)[C@H](O)CNC3CC3)c1)CCCCO2)c1ccccc1	> 100000	89	–
C[C@@H](NC(=O)c1cc(C(=O)N[C@@H](Cc2ccccc2)[C@H](O)CNC2CC2)cc2c1CCCO2)c1ccccc1	> 100000	63	65
C[C@@H](NC(=O)c1cc(C(=O)N[C@@H](Cc2ccccc2)[C@H](O)CNC2CC2)cc2c1CCCCO2)c1ccccc1	> 100000	56	35
Cc1cc2c(C(=O)N[C@H](C)c3ccccc3)cc(C(=O)N[C@@H](Cc3ccccc3)[C@H](O)CNC3CC3)cc2o1	> 100000	524	–
C[C@@H](NC(=O)c1cc2c(c(C(=O)N[C@@H](Cc3ccccc3)[C@H](O)CNC3CC3)c1)CCCO2)c1ccccc1	> 100000	112	–
